Test results from PMC4880976, “Pharmacologic rationale for the NK1R antagonist, aprepitant as adjunctive therapy in HIV” (Journal of Translational Medicine, 2016).
Where no end group is shown, it is not given here.

Key:
[1] = cited from earlier work
[2] = tested on: ATP-dependent K+ currents of mouse pancreatic B-cells; conditions: in the absence of albumin; Table 1, reference not given; read-out: concentration blocking currents half maximally; cited from earlier work
HIV = conditions: Table 1, reference not given; cited from earlier work
GABAA receptor = tested on: GABAA receptor; design: method as in PMID 23702798, PMID 25113527; conditions: cited from earlier work
5-HT2A receptor = target: 5-HT2A receptor; design: method as in PMID 23702798, PMID 25113527; conditions: partial agonist; cited from earlier work
serotonin reuptake = tested on: serotonin reuptake; design: method as in PMID 23702798, PMID 25113527; conditions: at 10 μM; cited from earlier work
[3] = tested on: vesicular monoamine transporter 2 (VMAT2); design: method as in PMID 23702798, PMID 25113527; conditions: at 10 μM; cited from earlier work
5-HT2C receptor = tested on: 5-HT2C receptor; design: method as in PMID 23702798, PMID 25113527; conditions: cited from earlier work
dopamine reuptake = tested on: dopamine reuptake; design: method as in PMID 23702798, PMID 25113527; conditions: at 10 μM; cited from earlier work
[4] = Table 1, literature values, no reference given; cited from earlier work
[5] = tested on: CD163 cleavage in human monocytes; experiment: sCD163 release from human monocytes, ELISA; type: cell-based; conditions: SP, time- and dose-dependent, p < 0.001
Description: sCD163 was measured by ELISA (Trillium Diagnostics, Brewer, Maine, USA) according to manufacturer’s recommendations.
Fig. 7 SP induces cleavage of CD163 in monocytes. sCD163 was measured by ELISA in the supernatant of freshly isolated human monocytes treated with SP and aprepitant as indicated. a Time course of cells treated with varying doses of SP as indicated. *p < 0.001 control versus 5 and 10 μM of SP. b Cells were pre-incubated with aprepitant (10 μM) for 30 min and then treated with SP (5 μM) for 60 min. *p < 0.001 SP versus control, p = 0.004 SP versus SP + aprepitant. Results are presented as mean ± SD from three independent experiments

[6] = tested on: PD-1 expression on CD3+CD4+ cells; experiment: PD-1 expression on CD4+ T-cells in PBMC, flow cytometry; type: cell-based, human
Description: (§1) For cytokine and PD-1 assessment experiments freshly isolated peripheral blood mononuclear cell (PBMC) purchased from the Human Immunology Core Facility of The University of Pennsylvania School of Medicine (Philadelphia, PA) were cultured in RPMI medium supplemented with 10 % FBS overnight. Some cultures were treated with SP (10 µM) aprepitant (10 µM) or DMSO (0.001 %, vehicle for aprepitant). Cytokine concentrations were measured in supernatants using multiplex assay 24 h after SP/aprepitant treatment (see below). For PD-1 expression SP and aprepitant were added at day 0 and PD-1 expression was monitored daily for up to 8 days using flow cytometry.
Fig. 6 Aprepitant blocks SP induced PD-1 expression on CD4+ T-cells. PBMC were treated for 7 days with SP and aprepitant as indicated. PD-1 expression was measured by flow cytometry on CD3+CD4+ cells and expressed as percentage of PD-1 positive cells. a Results from representative experiment are shown. First two columns show gaiting strategy. […] Median (spread): control 14.7 (11.1), SP treated 38.4 (60.6), SP + aprepitant treated 7.8 (6.0) TEXT PRINTED IN THE PICTURE: (a) SP: PD1+ 67.1 | (a) SP + aprepitant: PD1+ 9.53 DOUBTS OF THE COPYIST ABOUT THIS PICTURE: SP + aprepitant, PD1+ 9.53: the sign after PD1 looks like '+' or '−' because it touches the gate line / SP + aprepitant, 9.53: small print, so the digits 9, 5 and 3 are not fully certain / The rows 'no staining' (PD1+ 0.079) and 'control' (PD1+ 11.4) were left out because they are not substances

human PBMC = experiment: SP dependent cytokine and chemokine production by PBMC, multiplex assay; type: cell-based; conditions: SP 10 µM, 24 h
Description: as §1
Concentrations of pro-inflammatory cytokines and chemokines in supernatants of human PBMC were measured using human Cytokine/Chemokine Magnetic Bead Panel—Premixed 30 Plex, HCYTMAG-60K-PX30 (Millipore, Billerica, MA, USA) as recommended by the manufacturers.
Fig. 5 SP dependent up regulation of cytokine and chemokine production by human PBMC* is inhibited by aprepitant. *Freshly isolated PBMC from normal donors were incubated for 24 h with SP and/or Aprepitant (10 µM each) as indicated. Control cultures were either left untreated of incubated with DMSO (vehicle for aprepitant). Pro-inflammatory markers were measured in supernatants using MILLIPORE Human Cytokine/Chemokine Magnetic Bead Panel.

Compound: O=C1NC(=O)C(c2ccccc2)(c2ccccc2)N1 [Phenytoin]
- clinically effective serum trough concentration ([1]; in vivo): The clinically effective serum trough concentration is usually 40 to 80 µmol/L.

Compound: CCCCNC(=O)NS(=O)(=O)c1ccc(C)cc1 [Tolbutamide]
- IC50 [2]: 4.1 µM

Compound: CCCC(CCC)C(=O)O [Valproic Acid]
- therapeutic range (total) ([1]; in vivo): The therapeutic range for valproic acid (total) is 50–125 µg/mL

Compound: O=C1Nc2ccc(Cl)cc2[C@@](C#CC2CC2)(C(F)(F)F)O1 [Efavirenz]
- Plasma concentrations that appear to suppress HIV replication (HIV): Plasma concentrations above 2 mg/L appear to suppress HIV replication
- action at GABAA receptor (GABAA receptor): positive allosteric modulator
- Ki (5-HT2A receptor): 2.2 µM
- serotonin reuptake inhibition (serotonin reuptake): 50%
- VMAT2 inhibition [3]: 60%
- action at 5-HT2C receptor (5-HT2C receptor): ligand
- dopamine reuptake inhibition (dopamine reuptake): 75%

Compound: NS(=O)(=O)c1cc(C(=O)O)c(NCc2ccco2)cc1Cl [Furosemide]
- PB % [4]: Furosemide (91–99 %)

Compound: CCC[C@@H]1C[C@@H](C(=O)N[C@@H]([C@H]2O[C@H](SC)[C@H](O)[C@@H](O)[C@H]2O)[C@H](C)Cl)N(C)C1 [Clindamycin]
- PB % [4]: Clindamycin (95 %)

Compound: substance P (RPKPQQFFGLM; ends and bridges not checked; UniProt P20366 58-68, looked up) [SP, substance P, ligand of its preferring receptor NK1R]
- release of sCD163 [5]: fast release
- percentage of PD-1 positive CD4 cells, median (spread) ([6]; SP treated, 7 days, five experiments, control 14.7 (11.1)): 38.4 (60.6) %
- PD-1 expression by CD4 T-cells ([6]; incubation of PBMC with SP, 6–8 days, p = 0.03): increased PD-1 expression
- production of G-CSF, IL-6, IL-8, TNFα and MIP-1α (human PBMC): upregulated
- production of MCP-1 (human PBMC): increased production

Compound: CN1C(=O)CN=C(c2ccccc2)c2cc(Cl)ccc21 [Diazepam]
- PB % [4]: Diazepam+ (98.5 %)
- target concentrations ([1]; Table 1 footnote, no reference given): < 1 µg/mL
